# Source: patent US20210253511A1, “COMPOUNDS AND USES FOR THE TREATMENT AND PREVENTION OF DISEASES AND CONDITIONS ASSOCIATE WITH OR AGGREVATED BY IMPARED MITOPHAGY” (Yissum Research Development Company of The Hebrew …, priority 2018, published 2021)
# Key:
# [1] = system: mitophagy in C. elegans muscles; assay: Mitophagy imaging with Mito-Rosella sensor; format: in vivo; details: 1 mM; L4 Rosella worms; 21° C.
# From the text: FIGS. 8A-8F. (FIG. 8A) is a schematic illustration of the Mito-Rosella sensor function. The Mito-Rosella sensor contains an N-terminal mitochondrial targeting signal, a pH-stable red fluorescent protein and a C-terminal pH-sensitive green fluorescent protein. In non-acidic environment the green to red fluorescent ratio is 0.6-0.8. However, in the autolysosome, where the pH is low, the green fluorescent is quenched and the green to red ratio is decreased to 0.2-0.5. By measuring the mitochondria red and green fluorescence, it was possible to monitor mitophagy in live worms. […] A bar graph presenting the results of mitophagy imaging experiments. L4 larval worms were treated with either 8 mM paraquat or 1 mM 1,8-Diaminooctane for 16 h, at 21° C. Control worms were treatment with similar volume of distilled water and incubated under similar conditions. Asterisks indicate significance for comparisons with control worms. […]
# The Mito-Rosella sensor is composed of an N-terminal mitochondrial targeting sequence followed by a pH-insensitive red fluorescent protein (DsRed.T3) and a pH-sensitive green fluorescent protein (pHluorin) (FIG. 8A). In intact mitochondria the green to red fluorescence ratio is high (between 0.6-0.8). However, upon acidification in autolysosome (where mitochondria are degraded) the green fluorescence is quenched and thus the ration is decreased to 0.2-0.5.
# [2] = system: C. elegans; assay: Lifespan assay; format: in vivo; details: 4 mM from L1; 21° C.; control 12 days; p=0.0063
# Experimental: FIG. 10. […] Survival curves comparing the lifespans of worm growing on plates containing 0.25 mM and 4 mM 1,8-Diaminooctane (or vehicle as a control). The curves represent data from at least three independent experiments in which the lifespans of at least 145 worms were measured (for each condition). The lifespan medians and p values are indicated in the parentheses near the treatment legend. All lifespan assays were conducted at 21° C. and started with synchronized L1 larvae. Statistical analysis on lifespan survival curves was performed using the log-rank (Mantel-Cox).
# Lifespan assays were performed as described in R. Abergel, L. Livshits, M. Shaked, A. K. Chatterjee, E. Gross, Synergism between soluble guanylate cyclase signaling and neuropeptides extends lifespan in the nematode Caenorhabditis elegans, Aging cell 16 (2) (2017) 401-413. In brief, 12 worms per plate were used. […] Worm's survival was scored every two days for live, dead (when it no longer responded to touch), and missing worms. The worms were transferred into fresh plates every 2 days to avoid progeny contamination and every 4 days when worms are in post-fertile stage, until the end of the experiment. Worms were scored as censored when they display internal progeny hatching (worm bagging), rupture, burrow in the agar or crawl off the plates, however, include them in the lifespan data analysis as censored. […]
# [3] = system: dct-1(tm376) mutants / dct-1 RNAi worms; assay: Paraquat survival assay in dct-1 deletion mutant or RNAi knockdown worms; format: in vivo, C. elegans
# Experimental: FIGS. 9A-9D show the protective activity of 1,8-Diaminooctane is mitophagy-dependent. (FIG. 9A) is a schematic illustration of the mitophagy pathway in C. elegans. Survival curves presenting the effect of dct-1 and pink-1 deletion mutations (FIG. 9B, FIG. 9C) or RNAi knockdowns (FIG. 9D) on worms' viability in 200 mM PQ at indicated time points. Statistical analysis on PQ survival curves were performed using the log-rank (Mantel-Cox) test with Prism 7 software. The plots represent the average of six independent experiments. The minimum number of worms examined for each experimental condition is 133.
# In the first one, the effect of 1,8-Diaminooctane on the survival of dct-1 and pink-1 mutants in PQ was investigated. DCT-1 is an orthologue of the mammalian NIX/BNIP3L and BNIP3 that act as mitophagy receptors, and PINK-1 is a mitochondrial phosphatase and tensin (PTEN)-induced kinase 1 which has a critical function in mitophagy (see K. Palikaras, E. Lionaki, N. Tavernarakis, Coordination of mitophagy and mitochondrial biogenesis during ageing in C. elegans, Nature 521 (7553) (2015) 525-8; and FIG. 3A). It was hypothesized that if mitophagy is essential for the protective effect of 1,8-Diaminooctane, then dct-1 and pink-1 mutants will become sensitive to PQ following treatment. […] The second experiment that was performed was an RNAi experiment. Here, dct-1 and pink-1 were selectively knocked down using RNAi. The RNAi results recapitulated the one of the mutant experiments ([…]). […] Importantly, the RNAi phenotype was less strong compared to the one observed with the deletion mutants. […] The difference between the results could be due to incomplete suppression of dct-1 and pink-1 in the RNAi treated worms. Together, our results verify that 1,8-Diaminooctane protects against oxidative stress by activating mitophagy.
compound,measurement,setting,value
"NCCCCCCCCN [1,8-Diaminooctane]",mitophagy response (Mito-Rosella green to red fluorescence ratio),[1],strong mitophagy response
same,median lifespan,[2],15 days
same,"survival in PQ of treated worms, RNAi against dct-1","[3]; compared to control worms that did not get the treatment, p<0.0001",significantly higher than control worms
same,"resistance to PQ after treatment, dct-1(tm376) mutants","[3]; compared to treated wild-type worms, 200 mM PQ, p<0.0001",significantly less resistant to PQ
same,"protective effect in PQ, RNAi against dct-1",[3]; compared to worms treated with mock RNAi (empty vector),significantly lesser
